# Assay results reported in publication PMC6302903, “Protein and Chemical Determinants of BL-1249 Action and Selectivity for K2P Channels” (ACS Chemical Neuroscience, 2018).
# Experiments:
# [1] = molecular target: T1, K2P2.1(TREK-1) G137I (Mus musculus, UniProt P97438, G152I); assay: TEVC of C-type gate activating mutant G137I; type: cell-based; details: Xenopus oocytes
# T1 construct: expressed in transfected cells; host or cells: Xenopus laevis oocytes, mRNA injected
# From the text: Diverse types of physical and chemical stimuli activate K2P2.1(TREK-1) by stabilizing the C-type gate and switching the channel into a “leak” mode that is characterized by a loss of outward rectification of the potassium current.[6],[8] Accordingly, we used inside-out patch clamp experiments of K2P2.1(TREK-1) expressed in HEK293 cells to test whether BL-1249 acts on the C-type gate. […] Together with previous single point concentration studies showing the insensitivity of K2P2.1(TREK-1) W275S in mammalian cells,[40] our data provide definitive evidence that BL-1249 activates K2P2.1(TREK-1) by stimulating the C-type gate. […]
# (§1) Xenopus laevis oocytes were harvested in accordance with UCSF IACUC protocol AN129690 and digested in calcium-free ND-96 (96 mM NaCl, 2 mM KCl, 3.8 mM MgCl2) immediately following harvest, as previously described.[6],[10] […] Defolliculated stage V–VI oocytes were injected with 0.2–6.0 ng of mRNA in 50 nL, and currents were recorded 24–48 h after injection. mRNA was synthesized from plasmid DNA using mMessage mMachine Kit (T7 promoter, Ambion, Life Technologies) and purified using RNEasy Kit (Qiagen). […] Once stabilized basal currents were recorded, compounds were perfused at various concentrations in standard ND96 and currents were allowed to increase to stabilization before recording final current. […]
# [2] = molecular target: TRAAK/EK-1_T (Mus musculus, UniProt O88454); assay: TEVC of C-terminal tail swap chimera TRAAK/EK-1_T; type: cell-based; details: Xenopus oocytes
# From the text: Given the importance of the C-terminal tail for the BL-1249 response and the fact that the C-terminal tails of K2P2.1(TREK-1) and K2P4.1(TRAAK) vary substantially (17.6% sequence similarity, 13.5% identity), we wondered if these differences could contribute to the different potencies observed in K2P2.1(TREK-1) and K2P4.1(TRAAK) BL-1249 responses. To test this possibility, we made chimeras that swapped the C-terminal tail between K2P2.1(TREK-1) and K2P4.1(TRAAK), TREK-1/AAK_T and TRAAK/EK_T. […] Despite this modest change, it is clear that the C-terminal tail alone is not sufficient to endow the K2P4.1(TRAAK) core with a K2P2.1(TREK-1)-like BL-1249 response. […]
# as §1
# Sequence of TRAAK/EK-1_T (O88454 1-255 limits assumed): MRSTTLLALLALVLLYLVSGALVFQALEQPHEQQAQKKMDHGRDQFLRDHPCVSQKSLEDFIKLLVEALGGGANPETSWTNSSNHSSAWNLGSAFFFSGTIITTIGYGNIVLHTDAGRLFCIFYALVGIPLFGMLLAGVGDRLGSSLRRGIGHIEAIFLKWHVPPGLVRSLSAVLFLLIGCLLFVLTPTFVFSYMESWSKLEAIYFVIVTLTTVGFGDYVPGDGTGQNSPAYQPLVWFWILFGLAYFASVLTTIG
# T1 sequence (P97438 1-411 isoform P97438-2 G137I): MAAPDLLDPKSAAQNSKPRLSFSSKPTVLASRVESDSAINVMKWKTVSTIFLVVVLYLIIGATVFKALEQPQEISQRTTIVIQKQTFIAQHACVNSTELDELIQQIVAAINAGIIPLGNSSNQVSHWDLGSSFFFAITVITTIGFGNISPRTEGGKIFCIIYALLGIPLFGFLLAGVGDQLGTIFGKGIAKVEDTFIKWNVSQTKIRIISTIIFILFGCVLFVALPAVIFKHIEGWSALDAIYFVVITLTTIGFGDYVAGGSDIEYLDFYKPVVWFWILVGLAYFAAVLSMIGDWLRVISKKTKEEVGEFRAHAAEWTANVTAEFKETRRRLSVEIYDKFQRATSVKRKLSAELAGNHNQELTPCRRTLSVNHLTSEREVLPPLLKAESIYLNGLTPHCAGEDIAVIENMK
structure (smiles),measurement,setting,value
"c1ccc(-c2nnn[nH]2)c(Nc2cccc3c2CCCC3)c1 [BL-1249, (5,6,7,8-tetrahydro-naphthalen-1-yl)-[2-(1H-tetrazol-5-yl)-phenyl]-amine]",EC50,[1],> 60 µM
same,sensitivity of K2P2.1(TREK-1) G137I to compound,[1],insensitive
same,EC50,[2],23 ± 4 µM
same,increase in sensitivity of TRAAK/EK-1_T relative to K2P4.1(TRAAK),[2],~2 fold
